Test [1] addresses T1, Alpha-1A adrenergic receptor (Homo sapiens, UniProt P35348).
T1 sequence (P35348 whole entry): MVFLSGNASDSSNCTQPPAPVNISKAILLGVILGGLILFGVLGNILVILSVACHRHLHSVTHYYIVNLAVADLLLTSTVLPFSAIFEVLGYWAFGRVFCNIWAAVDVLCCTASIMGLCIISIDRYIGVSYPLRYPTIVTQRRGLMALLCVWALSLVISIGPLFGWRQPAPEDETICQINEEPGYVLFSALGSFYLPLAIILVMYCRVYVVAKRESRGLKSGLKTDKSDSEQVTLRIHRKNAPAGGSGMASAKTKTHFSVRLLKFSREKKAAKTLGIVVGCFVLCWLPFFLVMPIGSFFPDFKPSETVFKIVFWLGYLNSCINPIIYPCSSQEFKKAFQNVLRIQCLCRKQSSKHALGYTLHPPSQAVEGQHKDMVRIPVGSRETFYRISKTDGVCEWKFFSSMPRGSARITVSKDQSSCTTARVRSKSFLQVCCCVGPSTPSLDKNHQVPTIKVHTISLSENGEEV
The format is functional, cell-based.

The target in test [2] is Sodium-dependent serotonin transporter (Homo sapiens, UniProt P31645).
Chain of Sodium-dependent serotonin transporter (P31645 whole entry): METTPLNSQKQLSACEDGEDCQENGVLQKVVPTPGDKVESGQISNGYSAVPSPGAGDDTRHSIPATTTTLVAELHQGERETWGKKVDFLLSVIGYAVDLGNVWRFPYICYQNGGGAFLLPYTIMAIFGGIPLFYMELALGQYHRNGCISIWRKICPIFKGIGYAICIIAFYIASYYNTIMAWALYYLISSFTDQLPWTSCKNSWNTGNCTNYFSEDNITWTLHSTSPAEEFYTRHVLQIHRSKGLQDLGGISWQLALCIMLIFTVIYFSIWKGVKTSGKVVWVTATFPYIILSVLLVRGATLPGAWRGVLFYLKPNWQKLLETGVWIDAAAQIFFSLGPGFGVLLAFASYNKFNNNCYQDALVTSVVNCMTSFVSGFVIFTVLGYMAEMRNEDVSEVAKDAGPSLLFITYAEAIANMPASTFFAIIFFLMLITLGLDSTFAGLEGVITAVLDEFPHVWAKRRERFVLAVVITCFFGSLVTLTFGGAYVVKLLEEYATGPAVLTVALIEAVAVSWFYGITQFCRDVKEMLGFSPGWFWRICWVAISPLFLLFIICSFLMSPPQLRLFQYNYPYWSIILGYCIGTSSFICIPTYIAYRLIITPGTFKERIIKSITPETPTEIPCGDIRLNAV
Test [3] concerns the target T2, 5-hydroxytryptamine receptor 1A (Homo sapiens, UniProt P08908).
T2 sequence (P08908 whole entry): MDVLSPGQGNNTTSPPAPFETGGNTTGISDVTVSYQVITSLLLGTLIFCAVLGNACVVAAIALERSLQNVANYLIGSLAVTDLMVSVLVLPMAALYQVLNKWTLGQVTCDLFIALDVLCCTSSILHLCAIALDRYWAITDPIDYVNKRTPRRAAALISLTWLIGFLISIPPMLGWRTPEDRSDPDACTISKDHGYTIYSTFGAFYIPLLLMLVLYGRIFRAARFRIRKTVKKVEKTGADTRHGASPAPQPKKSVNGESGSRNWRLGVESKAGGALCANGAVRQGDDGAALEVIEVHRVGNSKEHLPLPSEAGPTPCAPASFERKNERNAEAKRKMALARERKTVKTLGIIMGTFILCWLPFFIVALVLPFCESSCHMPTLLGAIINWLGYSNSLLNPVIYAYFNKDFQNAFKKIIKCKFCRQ
The class given is functional, cell-based.

Test [4] addresses Delta-type opioid receptor (Homo sapiens, UniProt P41143).
Test [5] addresses Kappa-type opioid receptor (Homo sapiens, UniProt P41145).
A further test addresses T3, Progesterone receptor (Homo sapiens, UniProt P06401).
T3 sequence (P06401 whole entry): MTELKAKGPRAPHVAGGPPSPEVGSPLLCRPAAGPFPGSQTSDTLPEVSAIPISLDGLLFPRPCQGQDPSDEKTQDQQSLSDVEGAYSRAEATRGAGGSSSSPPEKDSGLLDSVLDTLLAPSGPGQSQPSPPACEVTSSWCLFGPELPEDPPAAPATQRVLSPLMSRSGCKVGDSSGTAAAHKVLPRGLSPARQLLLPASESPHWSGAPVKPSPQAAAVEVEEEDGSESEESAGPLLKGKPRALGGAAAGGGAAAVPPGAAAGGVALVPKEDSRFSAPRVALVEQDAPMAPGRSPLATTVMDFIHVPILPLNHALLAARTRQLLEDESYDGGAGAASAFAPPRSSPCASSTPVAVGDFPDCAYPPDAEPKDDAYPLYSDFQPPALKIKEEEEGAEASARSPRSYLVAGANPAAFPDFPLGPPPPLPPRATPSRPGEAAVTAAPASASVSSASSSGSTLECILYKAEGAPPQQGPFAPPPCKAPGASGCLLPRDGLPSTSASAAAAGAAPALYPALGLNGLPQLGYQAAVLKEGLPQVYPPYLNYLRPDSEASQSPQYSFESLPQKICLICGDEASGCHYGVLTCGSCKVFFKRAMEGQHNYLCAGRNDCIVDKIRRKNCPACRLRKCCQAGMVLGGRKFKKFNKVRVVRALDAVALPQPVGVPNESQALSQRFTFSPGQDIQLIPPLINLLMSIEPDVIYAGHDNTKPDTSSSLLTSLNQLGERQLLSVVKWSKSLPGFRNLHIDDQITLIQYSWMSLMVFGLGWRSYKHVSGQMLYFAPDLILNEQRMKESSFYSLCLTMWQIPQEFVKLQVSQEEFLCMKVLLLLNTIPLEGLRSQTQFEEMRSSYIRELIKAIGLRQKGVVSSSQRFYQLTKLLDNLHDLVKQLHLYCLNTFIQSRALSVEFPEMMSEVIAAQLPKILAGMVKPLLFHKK
The class given is functional.

Test [6] concerns the target Sodium-dependent noradrenaline transporter (Homo sapiens, UniProt P23975).
Test [7] addresses cGMP-inhibited 3',5'-cyclic phosphodiesterase 3A (Homo sapiens, UniProt Q14432). The class given is functional.
Test [8] concerns the target T4, Neuropeptide Y receptor type 1 (Homo sapiens, UniProt P25929).
T4 sequence (P25929 whole entry): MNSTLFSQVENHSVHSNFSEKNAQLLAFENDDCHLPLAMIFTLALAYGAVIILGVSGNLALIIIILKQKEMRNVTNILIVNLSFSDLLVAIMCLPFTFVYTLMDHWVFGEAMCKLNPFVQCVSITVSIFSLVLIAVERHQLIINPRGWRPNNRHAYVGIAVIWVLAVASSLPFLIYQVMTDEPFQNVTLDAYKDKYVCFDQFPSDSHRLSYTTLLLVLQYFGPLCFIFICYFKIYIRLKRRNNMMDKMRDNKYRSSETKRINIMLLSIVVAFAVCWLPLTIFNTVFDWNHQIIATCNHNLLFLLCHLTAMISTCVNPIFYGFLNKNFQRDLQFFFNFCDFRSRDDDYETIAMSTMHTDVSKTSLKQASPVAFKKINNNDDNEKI

A further test concerns the target Histamine H3 receptor (Homo sapiens, UniProt Q9Y5N1).
Note: assay procedure not described here.

Chain of Sodium-dependent noradrenaline transporter (P23975 whole entry): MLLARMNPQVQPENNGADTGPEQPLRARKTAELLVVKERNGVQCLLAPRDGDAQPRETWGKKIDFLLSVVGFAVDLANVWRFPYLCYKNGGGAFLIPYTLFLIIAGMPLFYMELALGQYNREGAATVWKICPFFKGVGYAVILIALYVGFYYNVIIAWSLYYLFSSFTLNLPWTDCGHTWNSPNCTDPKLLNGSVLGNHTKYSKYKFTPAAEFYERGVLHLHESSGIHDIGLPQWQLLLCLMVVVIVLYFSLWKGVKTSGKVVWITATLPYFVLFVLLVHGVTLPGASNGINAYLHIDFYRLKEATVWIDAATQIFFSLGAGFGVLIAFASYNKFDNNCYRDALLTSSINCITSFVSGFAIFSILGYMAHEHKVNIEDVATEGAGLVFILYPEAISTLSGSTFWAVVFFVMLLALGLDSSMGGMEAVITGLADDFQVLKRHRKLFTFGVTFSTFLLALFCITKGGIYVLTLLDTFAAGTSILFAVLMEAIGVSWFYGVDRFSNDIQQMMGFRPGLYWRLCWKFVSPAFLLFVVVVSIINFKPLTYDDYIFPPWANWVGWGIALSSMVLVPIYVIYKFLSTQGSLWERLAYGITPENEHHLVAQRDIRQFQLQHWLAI
Chain of Kappa-type opioid receptor (P41145 whole entry): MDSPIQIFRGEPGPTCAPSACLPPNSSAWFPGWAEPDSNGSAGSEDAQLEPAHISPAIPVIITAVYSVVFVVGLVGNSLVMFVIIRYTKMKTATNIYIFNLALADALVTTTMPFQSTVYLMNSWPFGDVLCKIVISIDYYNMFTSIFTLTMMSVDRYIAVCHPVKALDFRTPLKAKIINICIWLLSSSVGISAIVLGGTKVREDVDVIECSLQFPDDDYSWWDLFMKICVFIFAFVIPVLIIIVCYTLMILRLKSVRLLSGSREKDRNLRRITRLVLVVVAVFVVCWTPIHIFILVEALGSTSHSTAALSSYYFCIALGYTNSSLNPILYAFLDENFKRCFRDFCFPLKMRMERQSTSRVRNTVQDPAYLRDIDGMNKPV
Chain of cGMP-inhibited 3',5'-cyclic phosphodiesterase 3A (Q14432 whole entry): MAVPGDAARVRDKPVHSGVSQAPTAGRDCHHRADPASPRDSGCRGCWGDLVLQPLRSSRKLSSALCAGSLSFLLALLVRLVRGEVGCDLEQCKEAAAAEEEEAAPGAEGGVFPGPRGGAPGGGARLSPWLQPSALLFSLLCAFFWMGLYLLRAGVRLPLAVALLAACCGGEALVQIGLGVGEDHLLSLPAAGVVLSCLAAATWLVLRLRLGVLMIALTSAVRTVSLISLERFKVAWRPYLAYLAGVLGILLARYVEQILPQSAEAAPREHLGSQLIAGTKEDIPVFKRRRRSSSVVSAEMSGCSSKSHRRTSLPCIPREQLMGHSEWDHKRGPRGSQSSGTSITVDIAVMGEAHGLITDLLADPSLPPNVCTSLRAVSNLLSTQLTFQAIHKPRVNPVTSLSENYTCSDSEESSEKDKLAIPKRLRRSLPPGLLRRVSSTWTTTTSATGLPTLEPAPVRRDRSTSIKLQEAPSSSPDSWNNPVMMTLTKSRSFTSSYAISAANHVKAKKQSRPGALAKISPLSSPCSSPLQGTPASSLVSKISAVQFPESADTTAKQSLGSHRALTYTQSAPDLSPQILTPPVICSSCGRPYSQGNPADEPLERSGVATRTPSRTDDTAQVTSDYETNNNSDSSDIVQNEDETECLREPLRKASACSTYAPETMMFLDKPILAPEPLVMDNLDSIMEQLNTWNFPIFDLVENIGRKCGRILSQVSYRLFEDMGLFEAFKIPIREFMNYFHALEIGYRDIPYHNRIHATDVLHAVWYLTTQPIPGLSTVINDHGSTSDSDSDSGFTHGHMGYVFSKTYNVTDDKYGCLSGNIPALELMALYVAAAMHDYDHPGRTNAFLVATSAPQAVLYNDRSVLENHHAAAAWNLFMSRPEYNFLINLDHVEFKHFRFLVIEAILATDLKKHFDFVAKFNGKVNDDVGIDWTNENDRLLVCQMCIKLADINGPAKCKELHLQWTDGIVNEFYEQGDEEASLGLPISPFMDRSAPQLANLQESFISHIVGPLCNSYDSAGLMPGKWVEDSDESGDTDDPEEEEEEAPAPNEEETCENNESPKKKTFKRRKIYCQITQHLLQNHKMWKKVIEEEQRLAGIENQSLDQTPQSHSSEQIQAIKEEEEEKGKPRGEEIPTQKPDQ
Chain of Delta-type opioid receptor (P41143 whole entry): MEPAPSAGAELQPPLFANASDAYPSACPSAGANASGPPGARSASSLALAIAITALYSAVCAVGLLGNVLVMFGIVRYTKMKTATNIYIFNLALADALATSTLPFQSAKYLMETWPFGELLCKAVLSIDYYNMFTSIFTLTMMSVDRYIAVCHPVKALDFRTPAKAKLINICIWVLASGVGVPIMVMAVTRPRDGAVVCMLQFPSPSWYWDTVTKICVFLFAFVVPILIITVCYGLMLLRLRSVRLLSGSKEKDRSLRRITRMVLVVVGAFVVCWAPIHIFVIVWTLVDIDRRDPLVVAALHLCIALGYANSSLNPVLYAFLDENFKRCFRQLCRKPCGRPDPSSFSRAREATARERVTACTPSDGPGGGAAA
Chain of Histamine H3 receptor (Q9Y5N1 whole entry): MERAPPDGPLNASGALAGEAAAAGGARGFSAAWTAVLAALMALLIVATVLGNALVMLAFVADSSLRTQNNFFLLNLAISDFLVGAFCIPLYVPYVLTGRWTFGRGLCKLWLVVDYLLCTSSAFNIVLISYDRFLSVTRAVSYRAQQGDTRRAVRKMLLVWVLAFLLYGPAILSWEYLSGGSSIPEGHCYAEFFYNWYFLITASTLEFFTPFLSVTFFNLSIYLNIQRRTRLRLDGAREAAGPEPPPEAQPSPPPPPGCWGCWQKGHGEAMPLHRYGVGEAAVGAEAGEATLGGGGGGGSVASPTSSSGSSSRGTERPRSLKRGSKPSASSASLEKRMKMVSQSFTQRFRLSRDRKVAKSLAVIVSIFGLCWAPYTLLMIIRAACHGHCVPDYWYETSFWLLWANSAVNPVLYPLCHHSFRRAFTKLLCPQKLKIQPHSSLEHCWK

Broadly, the AC50 is the concentration giving half of the maximal activity seen. Low readings indicate activity at low concentration, high ones activity only at high concentration. With `CCCCc1oc2ccc(NS(C)(=O)=O)cc2c1C(=O)c1ccc(OCCCN(CCCC)CCCC)cc1` [DRONEDARONE], the AC50 worked out at 5.92 µM in [1] and 3.31 µM in test [2].

On to `CC(C)C[C@H](NC(=O)[C@@H](O)[C@H](N)Cc1ccccc1)C(=O)O` [UBENIMEX], for which the concentration at half-maximal activity (AC50) (in test [3]; in test [4]; in test [5]; at Progesterone receptor; in [6]; in test [7]) was above 30 µM each time.

Take `COc1ccc2[nH]c([S+]([O-])Cc3ncc(C)c(OC)c3C)nc2c1` (stereo not drawn) [OMEPRAZOLE]: the half-maximal activity concentration (AC50) in test [1] was above 30 µM.

Consider `CC[C@]12CCCN3CCc4c(n(c5ccccc45)[C@@](O)(C(=O)OC)C1)[C@@H]32` [VINCAMINE], for which the AC50 in test [1] and in test [2] was above 30 µM throughout.

`CC(C)[C@@H]1CC[C@@H](C)C[C@H]1O` [LEVOMENTHOL]: the concentration at half-maximal activity (AC50) in test [1] and in test [2] was above 30 µM in each case.

Consider `COc1c2occc2c(OC)c2c(=O)cc(C)oc12` [KHELLIN], for which the AC50 in test [1] and in [2] was above 30 µM each time.

Turning to `Cc1ccsc1C(=CCCN1CCC[C@@H](C(=O)O)C1)c1sccc1C` [TIAGABINE], the AC50 in [1] and in test [2] was above 30 µM in each case.

In [1], `O=C(O)P(=O)(O)O` [FOSCARNET] yielded an AC50 above 30 µM.

For `O=C(NNCS(=O)(=O)O)c1ccncc1` [METHANIAZIDE], the AC50 in test [1] and in test [2] was above 30 µM in each case.

Consider `CC(C)C(=O)Oc1ccc(CO)cc1[C@H](CCN(C(C)C)C(C)C)c1ccccc1` [FESOTERODINE], for which the AC50 in test [1] and in [2] was above 30 µM throughout.

In [2], `CC(=O)NCCCCCC(=O)O` [ACEXAMIC ACID] showed an AC50 above 30 µM.

On to `CCCCC1C(=O)N(c2ccccc2)N(c2ccc(O)cc2)C1=O` (stereo not drawn) [OXYPHENBUTAZONE ANHYDROUS], for which the AC50 in test [1] and in test [2] was above 30 µM each time.

As for `CC(C)NC(=N)NC(=N)Nc1ccc(Cl)c(Cl)c1` [CHLORPROGUANIL], the concentration at half-maximal activity (AC50) is above 30 µM in test [3]; above 30 µM in test [4]; above 30 µM in test [5]; 5.81 µM in test [2]; above 30 µM in test [7].

Take `C[C@]12C=CC(=O)C=C1CC[C@H]1[C@@H]3C[C@@H](O)[C@](O)(C(=O)CO)[C@@]3(C)C[C@H](O)[C@@]12F` [TRIAMCINOLONE]: the half-maximal activity concentration (AC50) in test [1] was above 30 µM.

With `C[Se]CC[C@H](N)C(=O)O` [SELENOMETHIONINE], the AC50 in [1] and in [2] was above 30 µM throughout.

`CC1(C)O[C@@H]2C[C@H]3[C@@H]4C[C@H](F)C5=CC(=O)C=C[C@]5(C)[C@@]4(F)[C@@H](O)C[C@]3(C)[C@]2(C(=O)CO)O1` [FLUOCINOLONE ACETONIDE]: the half-maximal activity concentration (AC50) in test [1] was above 30 µM.

In test [1], `CCC1=C[C@@H]2CN(C1)Cc1c([nH]c3ccccc13)[C@@](C(=O)OC)(c1cc3c(cc1OC)N(C)[C@H]1[C@@](O)(C(=O)OC)[C@H](OC(C)=O)[C@]4(CC)C=CCN5CC[C@]31[C@@H]54)C2` [VINORELBINE] had a half-maximal activity concentration (AC50) above 30 µM.

As for `CCCCC(CC)CN1CN(CC(CC)CCCC)CC(C)(N)C1` (stereo not drawn) [HEXETIDINE], the half-maximal activity concentration (AC50) in test [1] is above 30 µM; in test [2], 6.51 µM.

`CCNC(=O)/C=C(C)/C=C/C=C(C)/C=C/c1c(C)cc(OC)c(C)c1C` [MOTRETINIDE]: the figures for the half-maximal activity concentration (AC50) in test [1] and in test [2] were above 30 µM and 28.3 µM, respectively.

With `C[N+](C)(CCCCCC[N+](C)(C)C1c2ccccc2-c2ccccc21)C1c2ccccc2-c2ccccc21` [HEXAFLUORENIUM], the results for the AC50 in test [1] and in [2] were 3.09 µM and 3.02 µM, respectively.

On to `Cc1cc(=O)[nH]c(=S)[nH]1` [METHYLTHIOURACIL], for which the half-maximal activity concentration (AC50) in test [1] and in [2] was above 30 µM throughout.

For `COc1ccccc1OC1(C)OC(=O)c2ccccc2O1` (stereo not drawn) [GUAIMESAL], the AC50 (in test [1]; in [8]; on Progesterone receptor; in test [6]; at Histamine H3 receptor) was above 30 µM in each case.

On to `CC[C@@H]1C[C@]1(NC(=O)[C@@H]1C[C@@H]2CN1C(=O)[C@H](C(C)(C)C)NC(=O)OCC(C)(C)CCCCc1cccc3c1CN(C3)C(=O)O2)C(=O)NS(=O)(=O)C1CC1`, for which the concentration at half-maximal activity (AC50) in test [1] was above 3 µM; in test [2] it was above 30 µM.

As for `O=C(O)Cc1ccccc1Oc1ccc(Cl)cc1Cl` [FENCLOFENAC], the AC50 in test [1] is above 30 µM; in test [3], above 10 µM; in [8], above 30 µM; in [4], above 30 µM; in [5], above 10 µM; in test [6], above 10 µM. Besides, the AC50 in test [7] was above 30 µM; on Histamine H3 receptor, above 10 µM.

With `COC(=O)[C@@H](N)Cc1ccc(O)c(O)c1` [MELEVODOPA], the AC50 in test [1] and in [2] was above 30 µM each time.

Consider `C[C@H]1O[C@@H](O[C@H]2CC[C@@]3(C)[C@H](CC[C@@H]4[C@@H]3C[C@@H](O)[C@]3(C)[C@@H](C5=CC(=O)OC5)CC[C@]43O)C2)C[C@H](O)[C@@H]1O[C@H]1C[C@H](O)[C@H](O[C@H]2C[C@H](O)[C@H](O[C@@H]3O[C@H](CO)[C@@H](O)[C@H](O)[C@H]3O)[C@@H](C)O2)[C@@H](C)O1` [DESLANOSIDE], for which the concentration at half-maximal activity (AC50) in test [1] and in [2] was above 30 µM throughout.

`C=C(C)CNc1ccc(C(C)C(=O)O)cc1` (stereo not drawn) [ALMINOPROFEN]: the AC50 in test [1] and in [2] was above 30 µM in each case.

With `Cc1cc(C2CCCCC2)n(O)c(=O)c1` [CICLOPIROX], the concentration at half-maximal activity (AC50) (at Progesterone receptor; in test [6]; in [7]) was above 30 µM in each case.

As to `O=C(O)CN(CCN(CC(=O)O)CC(=O)O)CCN(CC(=O)O)CC(=O)O` [PENTETIC ACID], the AC50 amounted to 1.28 µM in [1] and 0.0429 µM in test [2].

Regarding `C=N[C@@H](C(=O)N[C@@H]1C(=O)N2[C@@H]1SC(C)(C)[C@@H]2C(=O)O)c1ccccc1` [METAMPICILLIN], the half-maximal activity concentration (AC50) in [1] and in test [2] was above 30 µM each time.

Turning to `C#C[C@]1(O)C=C[C@H]2[C@@H]3CCC4=CC(=O)CC[C@@H]4[C@H]3CC[C@@]21CC` [GESTODENE], in test [2], the activity was half-maximal at 4.59 µM (AC50).

`CN[C@@H]1[C@H](O[C@H]2[C@H](O[C@H]3[C@H](O)[C@@H](O)[C@H](NC(=N)N)[C@@H](O)[C@@H]3NC(=N)N)O[C@@H](C)[C@]2(O)CO)O[C@@H](CO)[C@H](O)[C@H]1O` [DIHYDROSTREPTOMYCIN] returned an AC50 in test [2] above 30 µM.

(Values after ChEMBL document CHEMBL5291721, “A preclinical secondary pharmacology resource illuminates target-adverse drug reaction associations of marketed drugs” (Nat Commun, 2023).)
